Usually IC50 stands for the midpoint of a concentration-inhibition curve. As a reminder, the Ki is the equilibrium dissociation constant of an inhibitor or competing ligand from its target. As a reminder, the EC50 is the concentration at which the effect is half-maximal. The Emax is the greatest response seen or fitted, relative to the assay's reference.

Calls of active or inactive are those of the source. The rule behind the calls is not given here. Peptide text beside a SMILES is read from it. * marks the point of attachment. Dnp = O=[N+]([O-])c1ccc(*)c([N+](=O)[O-])c1 Bounds are passed on as bounds.

We go through twelve compounds from ChEMBL document CHEMBL1150359, “Identification of non-lipid LPA3 antagonists by virtual screening” (Bioorg Med Chem, 2008).

Assay [1] has as its target T1, Lysophosphatidic acid receptor 2 (Homo sapiens, UniProt Q9HBW0). Nature of the assay: Antagonist activity at LPA2 receptor expressed in rat RH7777 cells assessed as inhibition of LPA-induced intracellular calcium concentration. It is filed as functional, cell-based. On the technique in general: Calcium assays in cells follow changes in intracellular calcium, usually with a dye or a luminescent sensor.

Assay [2] has as its target T2, Lysophosphatidic acid receptor 3 (Homo sapiens) (UniProt Q9UBY5).
T2 sequence (whole entry): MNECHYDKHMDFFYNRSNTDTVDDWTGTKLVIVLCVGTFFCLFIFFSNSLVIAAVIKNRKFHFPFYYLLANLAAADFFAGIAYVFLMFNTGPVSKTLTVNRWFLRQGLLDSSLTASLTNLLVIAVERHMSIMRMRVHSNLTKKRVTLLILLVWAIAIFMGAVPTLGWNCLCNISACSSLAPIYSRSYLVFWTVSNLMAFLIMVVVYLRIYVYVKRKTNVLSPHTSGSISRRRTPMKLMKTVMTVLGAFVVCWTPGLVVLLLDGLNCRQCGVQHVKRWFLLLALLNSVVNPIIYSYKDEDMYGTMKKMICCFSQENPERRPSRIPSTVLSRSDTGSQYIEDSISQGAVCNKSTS
Nature of the assay: (§1) Antagonist activity at LPA3 receptor expressed in rat RH7777 cells assessed as inhibition of LPA-induced intracellular calcium concentration. The class given is functional, cell-based.

Assay [3] concerns the target T3, Lysophosphatidic acid receptor 1 (Homo sapiens, UniProt Q92633). Nature of the assay: Antagonist activity at LPA1 receptor expressed in rat RH7777 cells assessed as inhibition of LPA-induced intracellular calcium concentration. It is filed as functional, cell-based.
For assay [4], the target named is T2, Lysophosphatidic acid receptor 3 (Homo sapiens). Nature of the assay: Activity at LPA3 receptor expressed in rat RH7777 cells assessed as potentiation of LPA-induced intracellular calcium concentration. It is filed as functional, cell-based.
The target in assay [5] is T3, Lysophosphatidic acid receptor 1. In words: Activity at LPA1 receptor expressed in rat RH7777 cells assessed as inhibition of LPA-induced intracellular calcium concentration at 30 uM. The class given is functional, cell-based.
The target of assay [6] is T2, Lysophosphatidic acid receptor 3 (Homo sapiens). Nature of the assay: Activity at LPA3 receptor expressed in rat RH7777 cells assessed as inhibition of LPA-induced intracellular calcium concentration at 30 uM. It is filed as functional, cell-based.
Assay [7] concerns the target T4, Lysophosphatidic acid receptor 3 (Homo sapiens, UniProt Q9UBY5).
T4 sequence (Q9UBY5 whole entry): T2 sequence (whole entry)
In words: Inhibition of LPA3 receptor.

The target in assay [8] is T4, Lysophosphatidic acid receptor 3. Described as §1. It is filed as functional, cell-based.
In assay [9] the target is T1, Lysophosphatidic acid receptor 2. Nature of the assay: Activity at LPA2 receptor expressed in rat RH7777 cells assessed as inhibition of LPA-induced intracellular calcium concentration at 30 uM. It is filed as functional, cell-based.
Assay [10] concerns the target T4, Lysophosphatidic acid receptor 3. Nature of the assay: Agonist activity at LPA3 receptor expressed in rat RH7777 cells assessed as LPA-induced intracellular calcium response. It is filed as functional, cell-based.
The target in assay [11] is T3, Lysophosphatidic acid receptor 1. Nature of the assay: Agonist activity at LPA1 receptor expressed in rat RH7777 cells assessed as LPA-induced intracellular calcium response. It is filed as functional, cell-based.
Assay [12] deals with T1, Lysophosphatidic acid receptor 2. Nature of the assay: Agonist activity at LPA2 receptor expressed in rat RH7777 cells assessed as LPA-induced intracellular calcium response. The class given is functional, cell-based.

T3 sequence (Q92633 whole entry): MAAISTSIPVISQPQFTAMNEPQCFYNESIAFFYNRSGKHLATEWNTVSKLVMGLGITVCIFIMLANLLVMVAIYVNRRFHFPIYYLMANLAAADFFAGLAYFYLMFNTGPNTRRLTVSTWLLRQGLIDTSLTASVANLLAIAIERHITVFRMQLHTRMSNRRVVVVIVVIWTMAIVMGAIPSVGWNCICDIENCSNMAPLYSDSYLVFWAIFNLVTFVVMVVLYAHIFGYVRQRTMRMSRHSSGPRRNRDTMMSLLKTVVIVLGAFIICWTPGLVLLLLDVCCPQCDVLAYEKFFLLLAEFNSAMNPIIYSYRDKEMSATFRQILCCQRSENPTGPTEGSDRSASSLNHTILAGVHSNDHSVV
T1 sequence (Q9HBW0 whole entry): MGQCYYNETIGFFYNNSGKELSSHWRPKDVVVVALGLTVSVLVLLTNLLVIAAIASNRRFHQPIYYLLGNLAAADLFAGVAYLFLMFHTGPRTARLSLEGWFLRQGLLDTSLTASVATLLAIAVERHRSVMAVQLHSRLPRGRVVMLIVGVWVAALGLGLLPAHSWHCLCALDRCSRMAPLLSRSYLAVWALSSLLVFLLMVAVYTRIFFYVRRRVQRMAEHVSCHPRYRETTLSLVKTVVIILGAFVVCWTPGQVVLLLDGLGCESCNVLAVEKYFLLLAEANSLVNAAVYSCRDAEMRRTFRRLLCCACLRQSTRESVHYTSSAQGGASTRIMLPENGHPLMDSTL

Consider `Nc1ccc(C(=O)Nc2ccc(C(=O)Nc3ccc4c(O)cc(S(=O)(=O)O)cc4c3)cc2)cc1`, for which the IC50 in [1] was over 9.4 µM; in [3] it was over 7.3 µM. For the same compound, the figures for the Imax in assay [1], in [2] and in [3] were 88%, 53.7% and 59.3%, respectively.

In the case of `O=P(O)(O)OC[C@H]1O[C@@H](n2cnc3c(NCc4ccccc4)ncnc32)[C@H](O)[C@@H]1O`, in [4], the result was Active.

In the case of `O=C(O)/C=C\C(=O)Nc1cccc(NC(=O)Cc2ccccc2)c1`, the Imax is 52.2% in [5] and 16% in [6].

As to `CCCCCCC(=O)OC[C@H](COP(=O)(O)O)OC(=O)CCCCCC`, the IC50 in assay [7] was determined as 0.143 µM.

Take `NCC(=O)N[C@@H](CSc1ccc([N+](=O)[O-])cc1[N+](=O)[O-])C(=O)N[C@@H](CCC(=O)O)C(=O)O` (H-Gly-Cys(Dnp)-Glu-OH): the Imax in assay [2] worked out at 69.8%. The IC50 in assay [8] turned out to be 0.024 µM.

`O=C(O)/C=C\C(=O)Nc1cccc(NC(=O)c2ccccc2)c1`: the values for the Imax in assay [5] and in assay [9] were 34.6% and 46%, respectively. Also, the half-inhibitory concentration (IC50) in assay [8] is 0.347 µM. Moreover, the Ki in assay [8] was determined as 0.317 µM.

For `O=C(O)/C=C/C(=O)Nc1cccc(NC(=O)/C=C/C(=O)O)c1C(=O)O`, the results for the Imax in [1] and in assay [2] were 53.3% and 81.7%, respectively.

In the case of `CCCCCCC(=O)OC[C@H](COP(O)(O)=S)OC(=O)CCCCCC`, the IC50 in assay [7] came to 0.184 µM.

On to `CCOC(=O)c1ccc(/C=C/c2ccc(S(=O)(=O)O)cc2)cc1`, for which the results for the EC50 in assay [10], in [11] and in assay [12] were over 11.8 µM, over 12.3 µM and over 11.4 µM, respectively. The Emax in assay [6] worked out at 214%; in [3], 180%; in [9], 113%.

As to `O=C(O)/C=C/C(=O)Nc1cccc(NC(=O)/C=C/C(=O)O)c1`, in assay [1], the IC50 came to 0.0218 µM and the inhibitory constant (Ki) was determined as 0.0208 µM. Also, in assay [3], the IC50 amounted to 0.22 µM and the inhibitory constant (Ki) is 0.05 µM.

For the compound `O=C(O)/C=C/C(=O)Nc1ccc(Oc2cccc(Oc3ccc(NC(=O)/C=C/C(=O)O)cc3)c2)cc1`, the figures for the IC50 in [1], in assay [8] and in [3] were 0.0089 µM, 1.23 µM and 27.4 µM, respectively. The inhibition constant Ki in [1] was 0.0072 µM; in assay [8], 0.31 µM; in assay [3], 13.5 µM.

With `O=C(O)/C=C/C(=O)Nc1ccc(-c2ccc(NC(=O)/C=C/C(=O)O)cc2)cc1`, the Imax in assay [5] turned out to be 59%. Further, in assay [1], the IC50 is 0.0283 µM and the Ki came out at 0.0211 µM. In assay [8], the IC50 was 13.8 µM and the Ki was found to be 7.02 µM.
